Test results as given in US20190343908A1, “Therapeutic Combination for the Treatment of Cancer” (Nerium Biotechnology Inc., priority 2011, published 2019).

Assays:
[1] = test system: MCF-7 (human breast cancer); assay: Methyl-Tetrazolium viability assay, MCF-7; assay type: cell-based; design: key: absorbance (optical density) at 570 nm, second wavelength subtracted
Text: (§1) Three different viability assays were chosen to complement each other and yielded results dependent on concentration and cell line: the Methyl Tetrazolium dye assay, the Sulforhodamine B fluorescent dye assay, and the Crystal Violet dye assay.
The Methyl-Tetrazolium dye assay measures the activity of enzymes in mitochondria. The dye precursor is taken up by cells, where it undergoes reduction to the purple formazan. It measures only the mitochondrial activity and, thus, it is not always a reliable indication of whether the cells themselves are alive or dead, since even a recently dead cell has […] enzyme activity in mitochondria. Intracellular glucose concentration, pH, and time before assay all affect the measurements.
(§2) The Methyl Tetrazolium, Sulforhodamine B, and Crystal Violet assays were used to assess cell viabilities. The incubation times were 24 hours, 48 hours, and 72 hours. The Nerium oleander extract Anvirzel™ (a hot water extract of oleander obtained from Salud Integral, Honduras) was tested in concentrations ranging from 0.01 ng/mL to 10 ng/mL.
(§3) Cells were detached by trypsinization (Trypsin-0.25% EDTA, Invitrogen, 25200-072) during the logarithmic phase of culture growth and plated in 96-well plates (18.000 cells/well) (Corning, Costar 359) in a final volume of 200 μl of medium per well. […] The absorbance was measured after 24 hours, 48 hours, and 72 hours of incubation.
For the Methyl-Tetrazolium assay, the dye (Sigma, M2128; 5 mg/mL, diluted in phosphate-buffered saline) was added to each well and plates were incubated for 3 hours at 37° C. After the end of the incubation period, the medium was discarded and the cells were rinsed with phosphate-buffered saline. Finally, the formazan crystals were dissolved in dimethylsulphoxide (Sigma, D4540).
(§4) The optical density of each plate was measured on a μQuant spectrophotometer and the data were analyzed with Gen5 software (μQuant Biomolecular Spectrophotometer MQX200 and Gen5™ Microplate Data Collection & Analysis software, BioTek® Instruments. Inc, April 2008). Absorbance was measured at 570 nm for all assays and a second wavelength was measured in order to subtract noise. For the Methyl-Tetrazolium assay this second wavelength was 630 nm and for the Sulforhodamine B and Crystal Violet assays it was 690 nm.

[2] = test system: COR-L 105 (non-small cell lung carcinoma); assay: Sulforhodamine B viability assay, COR-L 105; assay type: cell-based, human; design: key to SRB Average: absorbance (optical density) at 570 nm, second wavelength subtracted; details: for SRB Average 24 h / SRB Average 48 h / SRB Average 72 h: COR-L 105, Run 3
Text: as §1
The Sulforhodamine B and Crystal Violet assays provide information about protein and were used to complement the Methyl-Tetrazolium dye assay. […] It is used for the quantification of cellular proteins of cultured cells. The assay using Crystal Violet, a dye that binds electrostatically to proteins and stains DNA, provides a reliable, simple assay for measuring viability of cells.
as §2, §3
For the Sulforhodamine B assay, 96-well plates were fixed by 10% trichloroacetic acid (Fluka, 91228) and were incubated at 4° C. for 1 hour. Afterwards, plates were rinsed with water and cells were stained with 0.4% Sulforhodamine B (Sigma, 341738), dissolved in 1% acetic acid (Carlo Ebra, 401422) for 15 minutes at room temperature (RT). The unbound stain was washed twice with 1% acetic acid. Finally, 10 mM Tris Buffer pH 10.5 (Sigma, T6791) was added to dissolve the dye.
as §4

N.N.[Cl][Pt][Cl] [cisplatin]
MTT Average ([1]; MCF-7, Run 2, 24 h, 0.1 μg/ml CDDP): 0.263 | MTT Average ([1]; MCF-7, Run 2, 24 h, 1 μg/ml CDDP): 0.027 | MTT Average ([1]; MCF-7, Run 2, 24 h, 10 μg/ml CDDP): 0.124 | MTT Average ([1]; MCF-7, Run 2, 24 h, 100 μg/ml CDDP): 0.029 | MTT Average ([1]; MCF-7, Run 2, 48 h, 0.1 μg/ml CDDP): 0.37 | MTT Average ([1]; MCF-7, Run 2, 48 h, 1 μg/ml CDDP): 0.025 | MTT Average ([1]; MCF-7, Run 2, 48 h, 10 μg/ml CDDP): 0.045 | MTT Average ([1]; MCF-7, Run 2, 48 h, 100 μg/ml CDDP): 0.029 | MTT Average ([1]; MCF-7, Run 2, 72 h, 0.1 μg/ml CDDP): 0.39 | MTT Average ([1]; MCF-7, Run 2, 72 h, 1 μg/ml CDDP): 0.038 | MTT Average ([1]; MCF-7, Run 2, 72 h, 10 μg/ml CDDP): 0.028 | MTT Average ([1]; MCF-7, Run 2, 72 h, 100 μg/ml CDDP): 0.013 | MTT Average ([1]; MCF-7, Run 3, 24 h, 0.1 μg/ml CDDP): 0.516 | MTT Average ([1]; MCF-7, Run 3, 24 h, 1 μg/ml CDDP): 0.039 | MTT Average ([1]; MCF-7, Run 3, 24 h, 10 μg/ml CDDP): 0.135 | MTT Average ([1]; MCF-7, Run 3, 24 h, 100 μg/ml CDDP): 0.026 | MTT Average ([1]; MCF-7, Run 3, 48 h, 0.1 μg/ml CDDP): 0.525 | MTT Average ([1]; MCF-7, Run 3, 48 h, 1 μg/ml CDDP): 0.041 | MTT Average ([1]; MCF-7, Run 3, 48 h, 10 μg/ml CDDP): 0.03 | MTT Average ([1]; MCF-7, Run 3, 48 h, 100 μg/ml CDDP): 0.032 | MTT Average ([1]; MCF-7, Run 3, 72 h, 0.1 μg/ml CDDP): 0.546 | MTT Average ([1]; MCF-7, Run 3, 72 h, 1 μg/ml CDDP): 0.035 | MTT Average ([1]; MCF-7, Run 3, 72 h, 10 μg/ml CDDP): 0.032 | MTT Average ([1]; MCF-7, Run 3, 72 h, 100 μg/ml CDDP): 0.018 | MTT Average ([1]; MCF-7 Run 1, 24 h, 0.1 μg/ml CDDP): 0.574 | MTT Average ([1]; MCF-7 Run 1, 24 h, 1 μg/ml CDDP): 0.066 | MTT Average ([1]; MCF-7 Run 1, 24 h, 10 μg/ml CDDP): 0.194 | MTT Average ([1]; MCF-7 Run 1, 24 h, 100 μg/ml CDDP): 0.034 | MTT Average ([1]; MCF-7 Run 1, 48 h, 0.1 μg/ml CDDP): 0.719 | MTT Average ([1]; MCF-7 Run 1, 48 h, 1 μg/ml CDDP): 0.051 | MTT Average ([1]; MCF-7 Run 1, 48 h, 10 μg/ml CDDP): 0.069 | MTT Average ([1]; MCF-7 Run 1, 48 h, 100 μg/ml CDDP): 0.025 | MTT Average ([1]; MCF-7 Run 1, 72 h, 0.1 μg/ml CDDP): 0.788 | MTT Average ([1]; MCF-7 Run 1, 72 h, 1 μg/ml CDDP): 0.048 | MTT Average ([1]; MCF-7 Run 1, 72 h, 10 μg/ml CDDP): 0.047 | MTT Average ([1]; MCF-7 Run 1, 72 h, 100 μg/ml CDDP): 0.023 | SRB Average 24 h ([2]; 0.1 μg/ml CDDP): 1.731 | SRB Average 48 h ([2]; 0.1 μg/ml CDDP): 2.759 | SRB Average 72 h ([2]; 0.1 μg/ml CDDP): 2.681 | SRB Average 24 h ([2]; 1 μg/ml CDDP): 1.862 | SRB Average 48 h ([2]; 1 μg/ml CDDP): 2.832 | SRB Average 72 h ([2]; 1 μg/ml CDDP): 2.654 | SRB Average 24 h ([2]; 10 μg/ml CDDP): 1.565 | SRB Average 48 h ([2]; 10 μg/ml CDDP): 2.85 | SRB Average 72 h ([2]; 10 μg/ml CDDP): 2.737 | SRB Average 24 h ([2]; 100 μg/ml CDDP): 1.113 | SRB Average 48 h ([2]; 100 μg/ml CDDP): 2.596 | SRB Average 72 h ([2]; 100 μg/ml CDDP): 2.819 | SRB Average ([2]; Run 1, 24 h, 0.1 μg/ml CDDP): 1.526 | SRB Average ([2]; Run 1, 24 h, 1 μg/ml CDDP): 1.714 | SRB Average ([2]; Run 1, 24 h, 10 μg/ml CDDP): 1.386 | SRB Average ([2]; Run 1, 24 h, 100 μg/ml CDDP): 1.523 | SRB Average ([2]; Run 1, 48 h, 0.1 μg/ml CDDP): 1.705 | SRB Average ([2]; Run 1, 48 h, 1 μg/ml CDDP): 1.716 | SRB Average ([2]; Run 1, 48 h, 10 μg/ml CDDP): 1.465 | SRB Average ([2]; Run 1, 48 h, 100 μg/ml CDDP): 1.415 | SRB Average ([2]; Run 1, 72 h, 0.1 μg/ml CDDP): 1.491 | SRB Average ([2]; Run 1, 72 h, 1 μg/ml CDDP): 1.356 | SRB Average ([2]; Run 1, 72 h, 10 μg/ml CDDP): 1.544 | SRB Average ([2]; Run 1, 72 h, 100 μg/ml CDDP): 1.456 | SRB Average ([2]; Run 2, 24 h, 0.1 μg/ml CDDP): 1.731 | SRB Average ([2]; Run 2, 24 h, 1 μg/ml CDDP): 1.862 | SRB Average ([2]; Run 2, 24 h, 10 μg/ml CDDP): 1.565 | SRB Average ([2]; Run 2, 24 h, 100 μg/ml CDDP): 1.113 | SRB Average ([2]; Run 2, 48 h, 0.1 μg/ml CDDP): 2.759 | SRB Average ([2]; Run 2, 48 h, 1 μg/ml CDDP): 2.832 | SRB Average ([2]; Run 2, 48 h, 10 μg/ml CDDP): 2.85 | SRB Average ([2]; Run 2, 48 h, 100 μg/ml CDDP): 2.596 | SRB Average ([2]; Run 2, 72 h, 0.1 μg/ml CDDP): 2.681 | SRB Average ([2]; Run 2, 72 h, 1 μg/ml CDDP): 2.654 | SRB Average ([2]; Run 2, 72 h, 10 μg/ml CDDP): 2.737 | SRB Average ([2]; Run 2, 72 h, 100 μg/ml CDDP): 2.819
